Test results: patent US7846964B2, “Thiophene derivatives as spingosine-1-phosphate-1 receptor agonists” (Actelion Pharmaceuticals Ltd., priority 2005, dated 2010)
pEC50: −log10 of the molar value.

target: recombinant human S1P1 receptor (Homo sapiens, UniProt P21453); test: GTPγS assay to determine EC50 values; type: biochemical; details: 35S-GTPγS binding, membrane preparations of CHO cells expressing recombinant human S1P1 receptor
Procedure: The pH is 7.4. Test compounds are dissolved and diluted in 100% DMSO and pre-incubated at room temperature for 30 min in 150 μl of the above assay buffer, in the absence of ^35S-GTPγS. After addition of 50 μl of ^35S-GTPγS, the assay is incubated for 1 h at room temperature. […] Membrane-bound ^35S-GTPγS is measured with a TopCount from Packard Biosciences.
Specific binding is determined by subtracting non-specific binding from maximal binding. Maximal binding is the amount of cpm bound to the Multiscreen plate in the presence of 10 μM of S1P. Non-specific binding is the amount of binding in the absence of an agonist in the assay.
The EC50 values were determined according to the method described above.

Sequence of recombinant human S1P1 receptor (P21453 whole entry): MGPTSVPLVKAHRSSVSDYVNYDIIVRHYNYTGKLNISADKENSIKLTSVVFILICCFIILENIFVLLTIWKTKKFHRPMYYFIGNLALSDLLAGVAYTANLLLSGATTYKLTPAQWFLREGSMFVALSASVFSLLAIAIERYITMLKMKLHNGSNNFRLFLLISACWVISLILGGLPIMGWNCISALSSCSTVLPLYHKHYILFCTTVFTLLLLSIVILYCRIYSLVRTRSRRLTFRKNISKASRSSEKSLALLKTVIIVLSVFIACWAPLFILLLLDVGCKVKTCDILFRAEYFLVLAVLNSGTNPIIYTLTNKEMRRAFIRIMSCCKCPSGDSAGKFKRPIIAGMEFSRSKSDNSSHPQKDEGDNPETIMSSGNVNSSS

| pEC50 | SMILES |
| --- | --- |
| 8.96 | CCc1cc(CCC(=O)c2sc(C)c3c2CC2C3C2(C)C)cc(C)c1OCC(O)CNC(=O)CO (stereo not drawn) [Example 244] |
| 7.92 | Cc1sc(C(=O)CCc2ccc(CC(O)CO)cc2)c2c1[C@H]1[C@@H](C2)C1(C)C (stereo partly drawn) [Example 1, 3-[4-((2S/R)-2,3-dihydroxy-propyl)-phenyl]-1-((1aS,5aR)-1,1,2-trimethyl-1,1a,5,5a-tetrahydro-3-thia-cyclopropa[a]pentalen-4-yl)-propan-1-one] |
| 8.70 | Cc1cc(CCC(=O)c2sc(C)c3c2CC2C3C2(C)C)ccc1OCC(O)CNCCC(=O)O (stereo not drawn) [Example 48] |
| 8.85 | Cc1sc(C(=O)CCc2ccc(OCC(O)CNCCC(=O)O)c(Cl)c2)c2c1C1C(C2)C1(C)C (stereo not drawn) [Example 60] |
| 8.57 | Cc1cc(CCC(=O)c2sc(C)c3c2C[C@@H]2[C@H]3C2(C)C)cc(C)c1OCC(O)CNC(=O)CN (stereo partly drawn) [Example 234, 2-amino-N-(3-{2,6-dimethyl-4-[3-oxo-3-((1aS,5aR)-1,1,2-trimethyl-1,1a,5,5a-tetrahydro-3-thia-cyclopropa[a]pentalen-4-yl)-propyl]-phenoxy}-2-hydroxy-propyl)-acetamide] |
| 7.89 | Cc1sc(C(=O)CCc2ccc(CCC(N)=O)cc2)c2c1[C@H]1[C@@H](C2)C1(C)C [Example 13] |
| 9.10 | Cc1cc(CCC(=O)c2sc(C)c3c2C[C@@H]2[C@H]3C2(C)C)cc(C)c1CC(O)CO (stereo partly drawn) [Example 239, 3-[4-(2,3-dihydroxy-propyl)-3,5-dimethyl-phenyl]-1-((1aS,5aR)-1,1,2-trimethyl-1,1a,5,5a-tetrahydro-3-thia-cyclopropa[a]pentalen-4-yl)-propan-1-one] |
| 8.54 | Cc1cc(CCC(=O)c2sc(C)c3c2C[C@@H]2[C@H]3C2(C)C)cc(C)c1CCC(=O)NC(CO)CO [Example 237, 3-{2,6-Dimethyl-4-[3-oxo-3-((1aS,5aR)-1,1,2-trimethyl-1,1a,5,5a-tetrahydro-3-thia-cyclopropa [a]pentalen-4-yl)-propyl]-phenyl}-N-(2-hydroxy-1-hydroxymethyl-ethyl)-propionamide] |
| 7.24 | Cc1cc(CCC(=O)c2sc(C)c3c2C[C@@H]2[C@H]3C2(C)C)ccc1OCCN(C)C [Example 37] |
| 8.96 | Cc1cc(CCC(=O)c2sc(C)c3c2C[C@@H]2[C@H]3C2(C)C)cc(C)c1OCC(O)CN (stereo partly drawn) [Example 99, 3-[4-(3-amino-2-hydroxy-propoxy)-3,5-dimethyl-phenyl]-1-((1aS,5aR)-1,1,2-trimethyl-1,1a,5,5a-tetrahydro-3-thia-cyclopropa[a]pentalen-4-yl)-propan-1-one] |
| 8.70 | COc1cc(CCC(=O)c2sc(C)c3c2CC2C3C2(C)C)cc(Cl)c1OCCN1CCC(C(=O)O)C1 (stereo not drawn) [Example 149] |
| 7.55 | COc1cc(CCC(=O)c2sc(C)c3c2CC2C3C2(C)C)cc(Cl)c1OCC(O)CN1CCNCC1 (stereo not drawn) [Example 175] |
| 8.52 | Cc1sc(C(=O)CCc2ccc(CCCN)cc2)c2c1[C@H]1[C@@H](C2)C1(C)C [Example 2] |
| 8.64 | COCC(O)COc1c(C)cc(CCC(=O)c2sc(C)c3c2C[C@@H]2[C@H]3C2(C)C)cc1C (stereo partly drawn) [Example 233, 3-[4-(2-Hydroxy-3-methoxy-propoxy)-3,5-dimethyl-phenyl]-1-((1aS,5aR)-1,1,2-trimethyl-1,1a,5,5a-tetrahydro-3-thia-cyclopropa[a]pentalen-4-yl)-propan-1-one] |
| 8.22 | Cc1sc(C(=O)CCc2ccc(C(=O)NCCN)cc2)c2c1[C@H]1[C@@H](C2)C1(C)C [Example 31] |
